Data from PubChem BioAssay (NCI).
Where “and” joins values, the source holds several entries; their conditions need not be identical. Identical values can stand only once.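 Five concentrations, 48 hours, 96-well plates. Abbreviation: GI50, concentration required for 50% inhibition of growth. TGI: total growth inhibition.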 Where a SMILES comes first, the peptide text is derived from it. The star is where a group is joined. Cbz = O=C(OCc1ccccc1)*; OBn = c1ccc(CO*)cc1

What was measured:
Assay in all cases: inhibition of tumour cell growth, NCI panel, 48 h
COLO 205 colon = system: COLO 205 colon
DU-145 prostate = system: DU-145 prostate
IGROV1 ovarian = system: IGROV1 ovarian
KM12 colon = system: KM12 colon
NCI-H522 lung = system: NCI-H522 lung
OVCAR-5 ovarian = system: OVCAR-5 ovarian
RXF 393 renal = system: RXF 393 renal
SK-MEL-28 melanoma = system: SK-MEL-28 melanoma
U251 CNS = system: U251 CNS
SR leukemia = system: SR leukemia

SMILES	TGI (COLO 205 colon)	TGI (DU-145 prostate) [µM]	TGI (IGROV1 ovarian)	TGI (KM12 colon)	TGI (NCI-H522 lung)	TGI (OVCAR-5 ovarian)	TGI (RXF 393 renal)	TGI (SK-MEL-28 melanoma)	TGI (U251 CNS)	GI50 (COLO 205 colon)	GI50 (KM12 colon)	GI50 (OVCAR-5 ovarian)	GI50 (RXF 393 renal)	GI50 (SK-MEL-28 melanoma)	TGI (SR leukemia) [µM]	GI50 (U251 CNS)
O=C(c1ccccc1)c1ccc2nc(-c3c(Cl)c(Cl)c(Cl)c(Cl)c3C(=O)N/N=C/c3ccccc3)[nH]c2c1	39.3 µM	> 100	> 100 µM	> 100 µM	55.3 µM	> 100 µM	73.2 µM	> 100 µM	> 100 µM	–	–	–	–	–	–	–
NC(=O)C#CC(N)=O	30.8 µM and 29.8 µM and > 100 µM	–	213 µM and 189 µM and > 100 µM	164 µM and 161 µM and > 100 µM	46.5 µM and 27.7 µM and 55.2 µM	38.4 µM and 47.9 µM and > 90.8 µM	14.6 µM and 22.7 µM and 29.5 µM	20 µM and 15.6 µM and 27 µM	152 µM and 132 µM and > 100 µM	15.4 µM and 15 µM and 73.6 µM	38.9 µM and 54.1 µM and > 100 µM	20.9 µM and > 54 µM	3.62 µM and 10.2 µM and 14.6 µM	8.21 µM and 5.85 µM	36.3	43 µM and 39.1 µM and > 100 µM
C=C(CC[C@@H](C(=O)O)[C@H]1[C@H](O)C[C@@]2(C)C3=CC[C@@H](C(=C)C)[C@](C)(CCC(=O)O)C3=CC[C@]12C)C(C)C	44.3 µM	38.9	–	32.6 µM	38.3 µM	30.5 µM	34.5 µM	40 µM	32.8 µM	–	–	–	–	–	–	–
COC(=O)C(Cc1ccc(O)cc1)NC(=O)C(CC(=O)OCc1ccccc1)NC(=O)OCc1ccccc1 (stereo unspecified) (Cbz-Asp(OBn)-Tyr-OMe; configuration not given here)	39.4 µM	–	31.1 µM	39.5 µM	–	43.2 µM	29.5 µM	31.3 µM	35 µM	–	–	–	–	–	66.3	–
CCCCc1ccc(Nc2ncc3[nH]cnc3n2)cc1	36.7 µM	30.6	39.6 µM	45 µM	55 µM	> 100 µM	49.7 µM	–	60.4 µM	–	–	–	–	–	–	–
CC(CO)C1C[C@H](O)[C@@]2(C)CC(=O)C=C(CO)[C@@H]2C1 (stereo partly specified)	> 100 µM	> 100	> 100 µM	> 100 µM	–	> 100 µM	> 100 µM	> 100 µM	> 100 µM	–	–	–	–	–	–	–
Cc1cc(S(=O)(=O)O)c(NC(=O)C(=O)C2C=CCS2(=O)=O)cc1Cl (stereo unspecified)	> 100 µM	–	> 100 µM	> 100 µM	> 100 µM	> 100 µM	> 100 µM	> 100 µM	> 100 µM	–	–	–	–	–	> 100	–
O=C1NC2(CCCCC2)C2CCCCCC12 (stereo unspecified)	–	–	> 100 µM	> 100 µM	–	> 100 µM	> 100 µM	> 100 µM	> 100 µM	–	–	–	–	–	> 100	–
Cc1ccc(C(C2C(=O)N(C)C(=O)N(C)C2=O)C(F)(F)C(=O)N(C)C)cc1 (stereo unspecified)	> 100 µM	> 100	–	> 100 µM	–	> 100 µM	> 100 µM	> 100 µM	> 100 µM	–	–	–	–	–	–	–
COC(=O)/C=C1\CCC(C)(C(=O)NS(=O)(=O)c2ccc(C)cc2)C1(C)C (stereo unspecified)	> 100 µM	> 100	> 100 µM	> 100 µM	> 100 µM	> 100 µM	> 100 µM	–	> 100 µM	–	–	–	–	–	–	–
C=C1C(=O)OCC2C(C(=O)O)=CC3C(C)C(C)=CC123 (stereo unspecified)	32.9 µM	–	36.1 µM	31.2 µM	8.18 µM	66.3 µM	17.7 µM	7.64 µM	38.6 µM	–	–	–	–	–	–	–
Cc1cccc(NC(=O)C(=O)C(C(=O)c2ccccc2F)C2OC(=O)c3ccccc32)c1Cl (stereo unspecified)	38.1 µM	–	> 100 µM	94.5 µM	79.9 µM	> 100 µM	–	> 100 µM	36 µM	–	–	–	–	–	> 100	–
CC(=O)OC(OC(C)=O)n1cc(C=O)c2ccccc21	> 100 µM	> 100	–	–	> 100 µM	> 100 µM	–	> 100 µM	> 100 µM	–	–	–	–	–	> 100	–
C=C(C)C(=O)[C@@]12C(=O)[C@@H](C)CC[C@H]1[C@H](C)C[C@@H]2C=C(C)C	41.5 µM	> 100	64.5 µM	56.4 µM	27.7 µM	55.2 µM	–	> 100 µM	49.6 µM	–	–	–	–	–	–	–
COc1ccc2c(c1)n([O-])c(C#N)c(N1CCN(c3ccc([N+](=O)[O-])cc3)CC1)[n+]2=O	–	> 84.1	> 100 µM	> 79.1 µM	9.97 µM	> 100 µM	41.8 µM	> 69.7 µM	> 100 µM	–	–	–	–	–	–	–
COc1cccc(/C=N/[N-]C(N)=O)c1[O-].[Ni+2].[OH3+].c1cnc2c(c1)ccc1cccnc12	> 100 µM	–	> 100 µM	> 100 µM	–	> 100 µM	–	> 100 µM	> 100 µM	–	–	–	–	–	> 100	–
COc1cccc(N(CN2CC=CC2=O)C(C)=O)c1	> 100 µM	> 100	> 100 µM	> 100 µM	> 100 µM	> 100 µM	> 100 µM	> 100 µM	> 100 µM	–	–	–	–	–	–	–
CN(C)Cc1cc(O)c(O)c(CN(C)C)c1	> 100 µM	> 100	> 100 µM	> 100 µM	> 100 µM	> 100 µM	> 100 µM	> 100 µM	> 100 µM	–	–	–	–	–	–	–
